{"source": "patent US6831088B2", "about": "“3-heterocyclypropanohydroxamic acid PCP inhibitors” (Pfizer Inc., priority 2001, dated 2004)", "origin": "cited, not measured here", "test_system": "PCP", "note": "Like-named read-outs stand apart in the source and are kept apart here.", "data": [{"smiles": "[Cl-].[Na+]", "note": "[NaCl]", "values": [{"measurement": "activity of PCP relative to that observed with the standard assay concentration of 0.15M", "setting": "0.2M NaCl", "result": 66, "unit": "%"}, {"measurement": "activity of PCP relative to that observed with the standard assay concentration of 0.15M", "setting": "0.3M NaCl", "result": 38, "unit": "%"}, {"measurement": "activity of PCP relative to that observed with the standard assay concentration of 0.15M", "setting": "0.5M NaCl", "result": 25, "unit": "%"}]}]}
